Experimental data: PMC12304293, “Combatting virulent gut bacteria by inhibiting the biosynthesis of a two-component lanthipeptide toxin” (Nature Communications, 2025)
Non-standard residues stand in square brackets, D forms with d. Residues, ends and D or L forms follow the SMILES beside them. *: point of attachment. boroGlu = O=C(O)CC[C@H](N*)B(O)O; Gly(cPr) = N[C@H](C(=O)O)C1CC1

Legend:
His6-CylA-27-412 [1] = biological target: T1, His6-CylA-27-412 (Enterococcus faecalis, UniProt A0A2P6AWB8); assay: Co-operative pore formation assay (pyranine liposomes) measuring CylA-catalyzed cytolysin maturation; type: biochemical
T1 sequence (A0A2P6AWB8 27-412): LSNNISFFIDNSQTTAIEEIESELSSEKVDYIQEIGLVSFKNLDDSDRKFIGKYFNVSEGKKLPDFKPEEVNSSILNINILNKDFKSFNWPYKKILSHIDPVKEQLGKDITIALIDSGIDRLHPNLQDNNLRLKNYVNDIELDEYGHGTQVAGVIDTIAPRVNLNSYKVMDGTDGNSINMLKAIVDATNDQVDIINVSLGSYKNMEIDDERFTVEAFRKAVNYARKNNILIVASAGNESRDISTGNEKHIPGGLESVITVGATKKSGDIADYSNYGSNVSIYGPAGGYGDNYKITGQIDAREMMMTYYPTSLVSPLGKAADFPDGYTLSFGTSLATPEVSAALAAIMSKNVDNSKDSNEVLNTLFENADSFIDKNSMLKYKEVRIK
Description: Cytolysin causes hemolysis and lyses a variety of eukaryotic cells[36],[37]. Additionally, CylA aggregates and is thought to associate primarily with the membrane of the producing cell[52],[53]. To mimic the maturation of cytolysin in vitro, an enzyme assay was designed that linked toxin production to the lysis of fluorescently labeled liposomes. […] In this way, pyranine fluorescence was correlated to toxin activation allowing for the determination of EC50 values (Fig. 4B, C).
Fig. 4 In vitro pore formation assay for determining inhibitor effectiveness. A A schematic of the assay showing how pore formation is used as an indicator of toxin maturation. […] Pore formation dissipates a pH gradient between the interior of the liposome and the surrounding buffer increasing pyranine fluorescence. […] The data points from two replicates are shown (n = 2). Source data are provided as a Source Data file.
Pyranine encapsulated liposomes were prepared as described elsewhere. […] To a well in a black 96-well plate (200 µL) was added 90 µL high pH buffer (5 mM MES, 5 mM Tricine, 5 mM NaCl, pH 7.4) containing CylA (4 nM final concentration). After adding inhibitor, the mixture was incubated at room temperature for 10 min then freshly prepared (no more than 2 days old) pyranine encapsulated DOPC liposomes were added such that the total DOPC concentration was 80 µM. […] The resulting curves were max-min normalized yielding the fraction of permeabilized liposomes. […] This experiment was performed in duplicate or triplicate for each inhibitor at each concentration.
Supplementary Figure 3. Measuring CylA-cat alyzed cytolysin maturation using a pyranine pore formation assay. Plots on the left side show the normalized pyranine emission intensity monitored […]
was added 30 min later. Each trace w as collected using a differ ent total co ncentration of inhibitor as indicated in the l egend. Traces are from a single representative tri al. On the right side, the fraction of liposomes permeabilized after 30 min was plotted as a function of total inhibitor concentration. The data were fit to a dose-response function using Origin 7 and the fit curve is depicted by the red line. Errors bars represent the standard of deviation bet ween two replicates (n = 2). Source d ata are pro vided as a Source Data file. […]

His6-CylA-27-412 [2] = biological target: T1, His6-CylA-27-412; assay: Analytical size exclusion chromatography (pro-domain release); conditions: increasing inhibitor:CylA ratio
Procedure: To gain more insight into this phenomenon, His6-CylA-27-412 that had undergone complete autolytic cleavage as determined by SDS-PAGE and that had been purified by size exclusion chromatography (SEC), was analyzed by analytical SEC (aSEC) in the presence of inhibitor 9. […] This assignment was supported by SDS-PAGE analysis of the eluted fractions (Supplementary Fig. 8). […] The SEC retention time data is inconsistent with CylA forming higher order oligomers, ruling out a DegP-like activation mechanism.
Samples of His6-CylA-27-412 prepared as described in ‘Expression and purification of His6-CylA-27-412’ were diluted to a concentration of 50 μM and injected (20 μL injection volume) into an Agilent 1260 infinity analytical high-performance liquid chromatography system equipped with a Biozen™ 1.8 μm, 300 × 4.6 mm LC column pre-equilibriated with aSEC buffer (100 mM NaHPO4, 200 mM NaCl, pH = 7.4). Absorbance at 220 nm was monitored. A flow rate of 0.25 mL/min was used for all experiments. Retention time was correlated to protein size using a Gel Filtration Standard (Biorad) and samples of carbonic anhydrase isolated from bovine erythrocytes (Sigma Aldrich) and albumin isolated from bovine serum (Sigma Aldrich).

His6-CylA-27-412 [3] = biological target: T1, His6-CylA-27-412; assay: FRET assay, initial rates of FRET peptide cleavage; type: biochemical; conditions: 762, 254, or 85 pM of inhibitor (substoichiometric; enzyme 20 nM)
Procedure: A FRET assay was developed to directly detect the inhibition of His6-CylA-27-412 activity by inhibitor 9. Fmoc SPPS was used to prepare a FRET labeled substrate. The substrate recognition sequence and a portion of the N-terminus of unmodified CylLS were embedded in between N-terminal Asp(EDANS) and C-terminal Lys(DABCYL) residues (Fig. 5A).
A Structure of the FRET substrate and its cleavage by CylA. Samples of FRET substrate (44 µM) in PBS (pH = 7.4) before and after treatment with His6-CylA-27-412 (200 nM) overnight at 37 °C. […] Points represent the mean. Error bars represent the standard of deviation and are centered at the mean. C The relationship between relative enzyme activity (vi/vo) and concentration of 9. […] The colored line represents the calculated fit function. Points represent the mean and error bars represent the standard of deviation centered at the mean. […] For (D) and (E) absorbance at 220 nm was monitored. […] Statistical significance was calculated using a one sample and one-sided t test. *P < 0.05, **P < 0.01. […]
The emission intensity of EDANS was measured over a 4 h period using a BioTek Synergy H4 plate reader. The slope of the linear portion of the emission intensity as a function of time curve was calculated (vi), divided by the slope of an uninhibited control (vo), and the ratio (vi/vo) was plotted as function of total inhibitor concentration.

CC(=O)NCC(=O)N[C@@H](CC(=O)O)C(=O)N[C@H](C(=O)N[C@@H](CCC(N)=O)C(=O)N[C@@H](C)C(=O)N[C@@H](CCC(=O)O)B(O)O)C1CC1 [Compound 9] (Ac-GD[Gly(cPr)]QA-boroGlu)
more effective than compound 1 at inhibiting pore formation (His6-CylA-27-412 [1]): 2 fold
conversion of CylA-96-412°His6-27-95 to the 12.1 min peak (pro-domain release), aSEC (His6-CylA-27-412 [2]): transition appeared complete once a stoichiometric equivalent of inhibitor was added
rate of FRET peptide cleavage (His6-CylA-27-412 [3]): increased significantly
